These results are taken from US9670227B2, “Thienopyrimidine derivatives, a process for their preparation and pharmaceutical compositions containing them” (LES LABORATOIRES SERVIER, priority 2013, dated 2017).

This experiment has as its target Mcl-1 protein (UniProtKB primary accession number: Q07820) (Homo sapiens, UniProt Q07820). Briefly: Inhibition of Mcl-1 by fluorescence polarisation, Method 1. In kind it is binding. To be noted: for percentage fluorescence polarisation inhibition, Mcl-1 FP: partial inhibitors, @ 10 uM test compound; for IC50: fluorescence polarisation, Method 1, or Method 2, read-out: IC50 (M) Mcl-1 FP. The essentials:
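FP competition, 11-point compound titration in 5% final DMSO; protein and labelled probe at 5 nM and 1 nM final in HEPES/NaCl/Tween 20 buffer, pH 7.4.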

In general, IC50 refers to the concentration needed to halve the response being measured.

Mcl-1 protein, sequence (Q07820 whole entry): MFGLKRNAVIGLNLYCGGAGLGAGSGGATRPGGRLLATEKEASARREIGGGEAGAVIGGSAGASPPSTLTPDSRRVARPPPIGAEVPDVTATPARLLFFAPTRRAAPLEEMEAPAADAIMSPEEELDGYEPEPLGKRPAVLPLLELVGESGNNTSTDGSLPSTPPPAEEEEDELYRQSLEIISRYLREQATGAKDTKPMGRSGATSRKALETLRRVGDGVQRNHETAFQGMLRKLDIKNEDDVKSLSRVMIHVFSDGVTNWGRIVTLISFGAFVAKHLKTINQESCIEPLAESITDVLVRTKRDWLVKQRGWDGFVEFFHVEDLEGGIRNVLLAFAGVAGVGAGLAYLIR

For `COc1ccccc1CC(Oc1ncnc2sc(C(=O)N(C)C)c(-c3ccc(OCCN4CCN(C)CC4)c(Cl)c3C)c12)C(=O)O` [Example 574, (2R)-2-{[(5Ra)-5-{3-chloro-2-methyl-4-[2-(4-methylpiperazin-1-yl)ethoxy]phenyl}-6-(dimethylcarbamoyl)thieno[2,3-d]pyrimidin-4-yl]oxy}-3-(2-methoxyphenyl)propanoic acid], where the note is “10 µM”, the “percentage fluorescence polarisation inhibition, Mcl-1 FP” value amounted to 24.3% @ 10 uM.
With `COc1ccccc1CC(Oc1ncnc2sc(C(=O)N(C)C)c(-c3ccc(OCCN4CCN(C)CC4)c(Cl)c3C)c12)C(=O)O` [Example 575, (2R)-2-{[(5Sa)-5-{3-chloro-2-methyl-4-[2-(4-methylpiperazin-1-yl)ethoxy]phenyl}-6-(dimethylcarbamoyl)thieno[2,3-d]pyrimidin-4-yl]oxy}-3-(2-methoxyphenyl)propanoic acid], under “10 µM”, the “percentage fluorescence polarisation inhibition, Mcl-1 FP” value was 46.8% @ 10 uM.
`COc1ccccc1CC(Oc1ncnc2sc(-c3ccc(Br)o3)c(-c3ccc(OCCN4CCN(C)CC4)c(Cl)c3C)c12)C(=O)O` [Example 577, (2R)-2-{[6-(5-bromofuran-2-yl)-(5Sa)-5-{3-chloro-2-methyl-4-[2-(4-methylpiperazin-1-yl)ethoxy]phenyl}thieno[2,3-d]pyrimidin-4-yl]oxy}-3-(2-methoxyphenyl)propanoic acid]: the IC50 worked out at 7.6e-09 M.
As to `COC(=N)c1ccc(-c2sc3ncnc(OC(Cc4ccccc4OC)C(=O)O)c3c2-c2ccc(OCCN3CCN(C)CC3)c(Cl)c2C)o1` [Example 580, (2R)-2-[((5Sa)-5-{3-chloro-2-methyl-4-[2-(4-methylpiperazin-1-yl)ethoxy]phenyl}-6-[5-(methoxycarbonoimidoyl)furan-2-yl]thieno[2,3-d]pyrimidin-4-yl)oxy]-3-(2-methoxyphenyl)propanoic acid], the IC50 came to 3.7e-08 M.
In the case of `COc1ccccc1CC(Oc1ncnc2sc(-c3ccc(C(N)=O)o3)c(-c3ccc(OCCN4CCN(C)CC4)c(Cl)c3C)c12)C(=O)O` [Example 581, (2R)-2-{[6-(5-carbamoylfuran-2-yl)-(5Sa)-5-{3-chloro-2-methyl-4-[2-(4-methylpiperazin-1-yl)ethoxy]phenyl}thieno[2,3-d]pyrimidin-4-yl]oxy}-3-(2-methoxyphenyl)propanoic acid], the IC50 is 4.2e-07 M.
Same read-out and setting: the value for `COc1ccccc1CC(Oc1ncnc2sc(-c3ccc(C(=O)N(C)C)o3)c(-c3ccc(OCCN4CCN(C)CC4)c(Cl)c3C)c12)C(=O)O` [Example 582, (2R)-2-[((5Sa)-5-{3-chloro-2-methyl-4-[2-(4-methylpiperazin-1-yl)ethoxy]phenyl}-6-[5-(dimethylcarbamoyl)furan-2-yl]thieno[2,3-d]pyrimidin-4-yl)oxy]-3-(2-methoxyphenyl)propanoic acid] was 8.4e-08 M.
For the compound `COC(=O)c1ccc(-c2sc3ncnc(OC(Cc4ccccc4OC)C(=O)O)c3c2-c2ccc(OCCN3CCN(C)CC3)c(Cl)c2C)o1` [Example 583, (2R)-2-[((5Sa)-5-{3-chloro-2-methyl-4-[2-(4-methylpiperazin-1-yl)ethoxy]phenyl}-6-[5-(methoxycarbonyl)furan-2-yl]thieno[2,3-d]pyrimidin-4-yl)oxy]-3-(2-methoxyphenyl)propanoic acid], the IC50 was found to be 1.1e-07 M.
As to `COc1ccccc1CC(Oc1ncnc2sc(-c3ccc(-c4ccccc4)o3)c(-c3ccc(OCCN4CCN(C)CC4)c(Cl)c3C)c12)C(=O)O` [Example 586, (2R)-2-{[(5Sa)-5-{3-chloro-2-methyl-4-[2-(4-methylpiperazin-1-yl)ethoxy]phenyl}-6-(5-phenylfuran-2-yl)thieno[2,3-d]pyrimidin-4-yl]oxy}-3-(2-methoxyphenyl)propanoic acid], the IC50 was 1.4e-06 M.
With `COCCCc1sc2ncnc(OC(Cc3ccccc3OCc3ccnc(OC)n3)C(=O)O)c2c1-c1ccc(OCCN2CCN(C)CC2)c(Cl)c1C` [Example 599, (2R)-2-{[(5Sa)-5-{3-chloro-2-methyl-4-[2-(4-methylpiperazin-1-yl)ethoxy]phenyl}-6-(3-methoxypropyl)thieno[2,3-d]pyrimidin-4-yl]oxy}-3-{2-[(2-methoxypyrimidin-4-yl)methoxy]phenyl}propanoic acid], the IC50 is 1.1e-08 M.
As to `CCCCn1nccc1COc1ccccc1CC(Oc1ncnc2sc(C#N)c(-c3ccc(OCCN4CCN(C)CC4)c(Cl)c3C)c12)C(=O)O` [Example 614, (2R)-3-{2-[(1-butyl-1H-pyrazol-5-yl)methoxy]phenyl}-2-[((5Sa)-5-{3-chloro-2-methyl-4-[2-(4-methylpiperazin-1-yl)ethoxy]phenyl}-6-cyanothieno[2,3-d]pyrimidin-4-yl)oxy]propanoic acid], the IC50 turned out to be 8.4e-09 M.
As to `CCCCn1nccc1COc1ccccc1CC(Oc1ncnc2sc(-c3ccc(N)nc3)c(-c3ccc(OCCN4CCN(C)CC4)c(Cl)c3C)c12)C(=O)O` [Example 618, (2R)-2-{[6-(6-aminopyridin-3-yl)-(5Sa)-5-{3-chloro-2-methyl-4-[2-(4-methylpiperazin-1-yl)ethoxy]phenyl}thieno[2,3-d]pyrimidin-4-yl]oxy}-3-{2-[(1-butyl-1H-pyrazol-5-yl)methoxy]phenyl}propanoic acid], the half-maximal inhibitory concentration (IC50) was determined as 5.6e-09 M.
In the case of `CCOC(=O)[C@@H](Cc1ccccc1OCc1ccnn1C(C)C)Oc1ncnc2sc(-c3ccc(F)cc3)c(-c3ccc(OCCN4CCN(C)CC4)c(Cl)c3C)c12` [Example 624, ethyl (2R)-2-{[(5Sa)-5-{3-chloro-2-methyl-4-[2-(4-methylpiperazin-1-yl)ethoxy]phenyl}-6-(4-fluorophenyl)thieno[2,3-d]pyrimidin-4-yl]oxy}-3-(2-{[1-(propan-2-yl)-1H-pyrazol-5-yl]methoxy}phenyl)propanoate], the “percentage fluorescence polarisation inhibition, Mcl-1 FP” value is recorded as 26.95% @ 10 uM.
Turning to `CCOC(=O)[C@@H](Cc1ccccc1OCc1ccnc(OC)n1)Oc1ncnc2sc(-c3ccc(F)cc3)c(-c3ccc(OCCN4CCN(C)CC4)c(Cl)c3C)c12` [Example 626, ethyl (2R)-2-{[(5Sa)-5-{3-chloro-2-methyl-4-[2-(4-methylpiperazin-1-yl)ethoxy]phenyl}-6-(4-fluorophenyl)thieno[2,3-d]pyrimidin-4-yl]oxy}-3-{2-[(2-methoxypyrimidin-4-yl)methoxy]phenyl}propanoate], the “percentage fluorescence polarisation inhibition, Mcl-1 FP” value was 39.45% @ 10 uM.
As for `CCOC(=O)C(Cc1ccccc1OC)Oc1ncnc2sc(-c3ccco3)c(-c3ccc(OCCN4CCN(C)CC4)c(Cl)c3C)c12` [Example 627, ethyl (2R)-2-{[(5Sa)-5-{3-chloro-2-methyl-4-[2-(4-methylpiperazin-1-yl)ethoxy]phenyl}-6-(furan-2-yl)thieno[2,3-d]pyrimidin-4-yl]oxy}-3-(2-methoxyphenyl)propanoate], the IC50 amounted to 4.9e-07 M.
With `CCOC(=O)[C@@H](Cc1ccccc1OC[C@H]1CCCO1)Oc1ncnc2sc(-c3ccc(F)cc3)c(-c3ccc(OCCN4CCN(C)CC4)c(Cl)c3C)c12` [Example 628, ethyl (2R)-2-{[(5Sa)-5-{3-chloro-2-methyl-4-[2-(4-methylpiperazin-1-yl)ethoxy]phenyl}-6-(4-fluorophenyl)thieno[2,3-d]pyrimidin-4-yl]oxy}-3-{2-[(2R)-tetrahydrofuran-2-ylmethoxy]phenyl}propanoate], the “percentage fluorescence polarisation inhibition, Mcl-1 FP” value was 33.2% @ 10 uM.
For `CCOC(=O)[C@@H](Cc1ccccc1OC[C@H]1CCCO1)Oc1ncnc2sc(-c3ccc(F)cc3)c(-c3ccc(OCCN4CCOCC4)c(Cl)c3C)c12` [Example 629, ethyl (2R)-2-{[(5Sa)-5-{3-chloro-2-methyl-4-[2-(morpholin-4-yl)ethoxy]phenyl}-6-(4-fluorophenyl)thieno[2,3-d]pyrimidin-4-yl]oxy}-3-{2-[(2R)-tetrahydrofuran-2-ylmethoxy]phenyl}propanoate], the “percentage fluorescence polarisation inhibition, Mcl-1 FP” value is 14.95% @ 10 uM.
Turning to `CCOC(=O)C(Cc1ccccc1OCC1CCCO1)Oc1ncnc2sc(-c3ccc(F)cc3)c(-c3ccc(OCCN(C)C)c(Cl)c3C)c12` [Example 630, ethyl (2R)-2-{[(5Sa)-5-{3-chloro-4-[2-(dimethylamino)ethoxy]-2-methylphenyl}-6-(4-fluorophenyl)thieno[2,3-d]pyrimidin-4-yl]oxy}-3-{2-[(2R)-tetrahydrofuran-2-ylmethoxy]phenyl}propanoate], the “percentage fluorescence polarisation inhibition, Mcl-1 FP” value is on record as 27.95% @ 10 uM.
Take `CCOC(=O)[C@@H](Cc1ccccc1OCc1cnccn1)Oc1ncnc2sc(-c3ccc(F)cc3)c(-c3ccc(OCCN4CCN(C)CC4)c(Cl)c3C)c12` [Example 631, ethyl (2R)-2-{[(5Sa)-5-{3-chloro-2-methyl-4-[2-(4-methylpiperazin-1-yl)ethoxy]phenyl}-6-(4-fluorophenyl)thieno[2,3-d]pyrimidin-4-yl]oxy}-3-[2-(pyrazin-2-ylmethoxy)phenyl]propanoate]: the “percentage fluorescence polarisation inhibition, Mcl-1 FP” value came out at 56% @ 10 uM.
Turning to `CCOC(=O)[C@@H](Cc1ccccc1OCc1cnccn1)Oc1ncnc2sc(-c3ccc(F)cc3)c(-c3ccc(OCCN4CCOCC4)c(Cl)c3C)c12` [Example 632, ethyl (2R)-2-{[(5Sa)-5-{3-chloro-2-methyl-4-[2-(morpholin-4-yl)ethoxy]phenyl}-6-(4-fluorophenyl)thieno[2,3-d]pyrimidin-4-yl]oxy}-3-[2-(pyrazin-2-ylmethoxy)phenyl]propanoate], the “percentage fluorescence polarisation inhibition, Mcl-1 FP” value worked out at 41.8% @ 10 uM.
On the same count and under the same terms, as for `CCOC(=O)[C@@H](Cc1ccccc1OC)Oc1ncnc2sc(-c3ccsc3)c(-c3ccc(OCCN4CCN(C)CC4)c(Cl)c3C)c12` [Example 633, ethyl (2R)-2-{[(5Sa)-5-{3-chloro-2-methyl-4-[2-(4-methylpiperazin-1-yl)ethoxy]phenyl}-6-(thiophen-3-yl)thieno[2,3-d]pyrimidin-4-yl]oxy}-3-(2-methoxyphenyl)propanoate], the figure is 40.2 % @ 10 uM.
